Tested on: 931267-113-T-J1-PDC multicell spheroid viability
Test: Anticancer human tumor 931267-113-T-J1-PDC patient-derived colon adenocarcinoma cell line growth inhibition [PI3K]
Settings: for IC50: curve of first compound; for viability, T/C: stronger effect = lower value
Method in brief: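 Targeted small molecules plus PI3K inhibitors, half-log dose series from Cmax (default top 10 microM), were applied to heterotypic spheroids of cancer cells with HUVEC and MSCs. Viability indicated growth inhibition.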

[1] = second compound 0.0316 µM, first compound 0.000316 µM
[2] = second compound 0.0316 µM, first compound 0.001 µM
[3] = second compound 0.0316 µM, first compound 0.00316 µM
[4] = second compound 0.0316 µM, first compound 0.01 µM
[5] = second compound 0.0316 µM, first compound 0.0316 µM
[6] = second compound 0.0316 µM, first compound 0.1 µM
[7] = second compound 0.1 µM, first compound 0.000316 µM
[8] = second compound 0.1 µM, first compound 0.001 µM
[9] = second compound 0.1 µM, first compound 0.00316 µM
[10] = second compound 0.1 µM, first compound 0.01 µM
[11] = second compound 0.1 µM, first compound 0.0316 µM
[12] = second compound 0.1 µM, first compound 0.1 µM
[13] = second compound 0.316 µM, first compound 0.000316 µM
[14] = second compound 0.316 µM, first compound 0.001 µM
[15] = second compound 0.316 µM, first compound 0.00316 µM
[16] = second compound 0.316 µM, first compound 0.01 µM
[17] = second compound 0.316 µM, first compound 0.0316 µM
[18] = second compound 0.316 µM, first compound 0.1 µM
[19] = second compound 1 µM, first compound 0.000316 µM
[20] = second compound 1 µM, first compound 0.001 µM
[21] = second compound 1 µM, first compound 0.00316 µM
[22] = second compound 1 µM, first compound 0.01 µM
[23] = second compound 1 µM, first compound 0.0316 µM
[24] = second compound 1 µM, first compound 0.1 µM
[25] = second compound 3.16 µM, first compound 0.000316 µM
[26] = second compound 3.16 µM, first compound 0.001 µM
[27] = second compound 3.16 µM, first compound 0.00316 µM
[28] = second compound 3.16 µM, first compound 0.01 µM
[29] = second compound 3.16 µM, first compound 0.0316 µM
[30] = second compound 3.16 µM, first compound 0.1 µM
[31] = second compound 10 µM, first compound 0.000316 µM
[32] = second compound 10 µM, first compound 0.001 µM
[33] = second compound 10 µM, first compound 0.00316 µM
[34] = second compound 10 µM, first compound 0.01 µM
[35] = second compound 10 µM, first compound 0.0316 µM
[36] = second compound 10 µM, first compound 0.1 µM
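Further: viability read 7 days after compound addition.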

With `CC(=O)c1c(C)c2cnc(Nc3ccc(N4CCNCC4)cn3)nc2n(C2CCCC2)c1=O` + CC(Nc1ncnc2nc[nH]c12)c1cc2cccc(Cl)c2c(=O)n1-c1ccccc1 the IC50 (second compound 0.0316 µM) was over 0.1 µM, the IC50 (second compound 0.1 µM) was over 0.1 µM and the IC50 (second compound 0.316 µM) was over 0.1 µM. For the same compound, the IC50 (second compound 1 µM) was over 0.1 µM, the IC50 (second compound 3.16 µM) was over 0.1 µM and the IC50 (second compound 10 µM) was over 0.1 µM. The viability, T/C [1] was 115%, the viability, T/C [2] was 99% and the viability, T/C [3] was 96.5%. The viability, T/C [4] was 101%, the viability, T/C [5] was 120% and the viability, T/C [6] was 114%. It also gave a viability, T/C [7] of 106%, a viability, T/C [8] of 104% and a viability, T/C [9] of 110%. It also gave a viability, T/C [10] of 99.5%, a viability, T/C [11] of 110% and a viability, T/C [12] of 103%. For the same compound, the viability, T/C [13] was 109%, the viability, T/C [14] was 105% and the viability, T/C [15] was 98.1%. The viability, T/C [16] was 111%, the viability, T/C [17] was 108% and the viability, T/C [18] was 94.6%. The viability, T/C [19] was 104%, the viability, T/C [20] was 105% and the viability, T/C [21] was 104%. The viability, T/C [22] was 114%, the viability, T/C [23] was 99% and the viability, T/C [24] was 102%. It also gave a viability, T/C [25] of 106%, a viability, T/C [26] of 95.7% and a viability, T/C [27] of 90.7%. The viability, T/C [28] was 98%, the viability, T/C [29] was 103% and the viability, T/C [30] was 96.1%. It also gave a viability, T/C [31] of 97.3%, a viability, T/C [32] of 94.9% and a viability, T/C [33] of 98%. The viability, T/C [34] was 93.3%, the viability, T/C [35] was 94.7% and the viability, T/C [36] was 84.3%.
Work on `CC(C)n1nc(-c2ccc3oc(N)nc3c2)c2c(N)ncnc21` + CC(Nc1ncnc2nc[nH]c12)c1cc2cccc(Cl)c2c(=O)n1-c1ccccc1 yielded an IC50 (second compound 0.0316 µM) of over 0.1 µM, an IC50 (second compound 0.1 µM) of over 0.1 µM and an IC50 (second compound 0.316 µM) of over 0.1 µM. For the same compound, the IC50 (second compound 1 µM) was over 0.1 µM, the IC50 (second compound 3.16 µM) was over 0.1 µM and the IC50 (second compound 10 µM) was over 0.1 µM. The viability, T/C [1] was 101%, the viability, T/C [2] was 103% and the viability, T/C [3] was 97.8%. For the same compound, the viability, T/C [4] was 88.7%, the viability, T/C [5] was 92.6% and the viability, T/C [6] was 51.7%. For the same compound, the viability, T/C [7] was 106%, the viability, T/C [8] was 104% and the viability, T/C [9] was 92.7%. It also gave a viability, T/C [10] of 89.5%, a viability, T/C [11] of 79.8% and a viability, T/C [12] of 55.8%. For the same compound, the viability, T/C [13] was 113%, the viability, T/C [14] was 105% and the viability, T/C [15] was 93%. The viability, T/C [16] was 94.2%, the viability, T/C [17] was 86.5% and the viability, T/C [18] was 54.1%. It also gave a viability, T/C [19] of 95.6%, a viability, T/C [20] of 98% and a viability, T/C [21] of 91%. The viability, T/C [22] was 92.2%, the viability, T/C [23] was 87.5% and the viability, T/C [24] was 57%. For the same compound, the viability, T/C [25] was 93.8%, the viability, T/C [26] was 95% and the viability, T/C [27] was 88.4%. The viability, T/C [28] was 88.8%, the viability, T/C [29] was 81.8% and the viability, T/C [30] was 52.5%. It also gave a viability, T/C [31] of 87.5%, a viability, T/C [32] of 83.9% and a viability, T/C [33] of 91.6%. It also gave a viability, T/C [34] of 84.3%, a viability, T/C [35] of 74.8% and a viability, T/C [36] of 58.9%.
In the case of `CCCS(=O)(=O)Nc1ccc(F)c(C(=O)c2c[nH]c3ncc(-c4ccc(Cl)cc4)cc23)c1F` + CC(Nc1ncnc2nc[nH]c12)c1cc2cccc(Cl)c2c(=O)n1-c1ccccc1, the IC50 (second compound 0.0316 µM) is reported as 6.07 µM, the IC50 (second compound 0.1 µM) is reported as 6.04 µM and the IC50 (second compound 0.316 µM) is reported as 6.07 µM. It also gave an IC50 (second compound 1 µM) of 5.96 µM, an IC50 (second compound 3.16 µM) of 5.92 µM and an IC50 (second compound 10 µM) of 5.69 µM. The viability, T/C [5] was 102%, the viability, T/C [6] was 101% and the viability, T/C (second compound 0.0316 µM, first compound 0.316 µM) was 104%. For the same compound, the viability, T/C (second compound 0.0316 µM, first compound 1 µM) was 125%, the viability, T/C (second compound 0.0316 µM, first compound 3.16 µM) was 112% and the viability, T/C (second compound 0.0316 µM, first compound 10 µM) was 4.93%. The viability, T/C [11] was 101%, the viability, T/C [12] was 111% and the viability, T/C (second compound 0.1 µM, first compound 0.316 µM) was 103%. The viability, T/C (second compound 0.1 µM, first compound 1 µM) was 107%, the viability, T/C (second compound 0.1 µM, first compound 3.16 µM) was 119% and the viability, T/C (second compound 0.1 µM, first compound 10 µM) was 4.62%. The viability, T/C [17] was 107%, the viability, T/C [18] was 103% and the viability, T/C (second compound 0.316 µM, first compound 0.316 µM) was 109%. The viability, T/C (second compound 0.316 µM, first compound 1 µM) was 122%, the viability, T/C (second compound 0.316 µM, first compound 3.16 µM) was 110% and the viability, T/C (second compound 0.316 µM, first compound 10 µM) was 3.9%. For the same compound, the viability, T/C [23] was 102%, the viability, T/C [24] was 93.9% and the viability, T/C (second compound 1 µM, first compound 0.316 µM) was 113%. The viability, T/C (second compound 1 µM, first compound 1 µM) was 110%, the viability, T/C (second compound 1 µM, first compound 3.16 µM) was 109% and the viability, T/C (second compound 1 µM, first compound 10 µM) was 4.52%. It also gave a viability, T/C [29] of 99.2%, a viability, T/C [30] of 99.9% and a viability, T/C (second compound 3.16 µM, first compound 0.316 µM) of 102%. For the same compound, the viability, T/C (second compound 3.16 µM, first compound 1 µM) was 116%, the viability, T/C (second compound 3.16 µM, first compound 3.16 µM) was 104% and the viability, T/C (second compound 3.16 µM, first compound 10 µM) was 5.3%. For the same compound, the viability, T/C [35] was 92.3%, the viability, T/C [36] was 95.2% and the viability, T/C (second compound 10 µM, first compound 0.316 µM) was 99.6%. The viability, T/C (second compound 10 µM, first compound 1 µM) was 108%, the viability, T/C (second compound 10 µM, first compound 3.16 µM) was 97.7% and the viability, T/C (second compound 10 µM, first compound 10 µM) was 4.17%.

Reference: PubChem BioAssay AID1963970 (Molecular Pharmacology Branch, DTP, NCI, 2024)
